Results: the supplement of paper PMC10307832

How the values were obtained:
Experiment in all cases: relative viability (nuclei count vs DMSO), 5 days (fraction); higher = more cells survive
HCC-44 = system: HCC-44
Outline: (§1)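 Lung cancer cell lines in 1536-well plates were dosed by pin tool the day after seeding, either with one drug alone or with a fixed anchor-drug dose plus five library-drug doses (not always all listed) in √10 steps. After 5 days, cells were fixed and their nuclei stained in one step (final 0.05% Triton X-100, 1% formaldehyde, 1 ug/ml Hoechst), then counted on 4× images. Relative viability is the nuclei count in treated wells divided by that in vehicle wells. Values are medians of duplicate plates.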

NCI-H358 = system: NCI-H358
Outline: as §1

HARA = system: HARA
Outline: as §1

NCI-H2405 = system: NCI-H2405
Outline: as §1

NCI-H727 = system: NCI-H727
Outline: as §1

NCI-H1975 = system: NCI-H1975
Outline: as §1

SK-LU-1 = system: SK-LU-1
Outline: as §1

NCI-H2023 = system: NCI-H2023
Outline: as §1

NCI-H661 = system: NCI-H661
Outline: as §1

NCI-H1792 = system: NCI-H1792
Outline: as §1

HCC-366 = system: HCC-366
Outline: as §1

NCI-H1437 = system: NCI-H1437
Outline: as §1

NCI-H2085 = system: NCI-H2085
Outline: as §1

COR-L 105 = system: COR-L 105
Outline: as §1

NCI-H1944 = system: NCI-H1944
Outline: as §1

UMC-11 = system: UMC-11
Outline: as §1

HCC-827 = system: HCC-827
Outline: as §1

HCC-78 = system: HCC-78
Outline: as §1

HCC-15 = system: HCC-15
Outline: as §1

COR-L23 = system: COR-L23
Outline: as §1

NCI-H1395 = system: NCI-H1395
Outline: as §1

EPLC-272H = system: EPLC-272H
Outline: as §1

LCLC-103H = system: LCLC-103H
Outline: as §1

## Cc1cnc(-c2cnc(NCCNc3ccc(C#N)cn3)nc2-c2ccc(Cl)cc2Cl)[nH]1 + CC(=O)c1c(C)c2cnc(Nc3ccc(N4CCNCC4)cn3)nc2n(C2CCCC2)c1=O [Palbociclib] (partner 0.5 µM)
HCC-44; first compound 0.08 µM
  relative viability: 0.957
HCC-44; first compound 0.253 µM
  relative viability: 0.931
HCC-44; first compound 0.8 µM
  relative viability: 0.97
HCC-44; first compound 2.53 µM
  relative viability: 0.985
NCI-H358; first compound 0.08 µM
  relative viability: 0.13
NCI-H358; first compound 0.253 µM
  relative viability: 0.14
NCI-H358; first compound 0.8 µM
  relative viability: 0.134
NCI-H358; first compound 2.53 µM
  relative viability: 0.143
HARA; first compound 0.08 µM
  relative viability: 0.296
HARA; first compound 0.253 µM
  relative viability: 0.288
HARA; first compound 0.8 µM
  relative viability: 0.262
HARA; first compound 2.53 µM
  relative viability: 0.241
NCI-H2405; first compound 0.08 µM
  relative viability: 0.571
NCI-H2405; first compound 0.253 µM
  relative viability: 0.452
NCI-H2405; first compound 0.8 µM
  relative viability: 0.57
NCI-H2405; first compound 2.53 µM
  relative viability: 0.495
NCI-H727; first compound 0.08 µM
  relative viability: 0.659
NCI-H727; first compound 0.253 µM
  relative viability: 0.637
NCI-H727; first compound 0.8 µM
  relative viability: 0.644
NCI-H727; first compound 2.53 µM
  relative viability: 0.663
NCI-H1975; first compound 0.08 µM
  relative viability: 0.69
NCI-H1975; first compound 0.253 µM
  relative viability: 0.519
NCI-H1975; first compound 0.8 µM
  relative viability: 0.487
NCI-H1975; first compound 2.53 µM
  relative viability: 0.301
SK-LU-1; first compound 0.08 µM
  relative viability: 0.417
SK-LU-1; first compound 0.253 µM
  relative viability: 0.474
SK-LU-1; first compound 0.8 µM
  relative viability: 0.337
SK-LU-1; first compound 2.53 µM
  relative viability: 0.524
NCI-H2023; first compound 0.08 µM
  relative viability: 0.41
NCI-H2023; first compound 0.253 µM
  relative viability: 0.344
NCI-H2023; first compound 0.8 µM
  relative viability: 0.387
NCI-H2023; first compound 2.53 µM
  relative viability: 0.541
NCI-H661; first compound 0.08 µM
  relative viability: 0.44
NCI-H661; first compound 0.253 µM
  relative viability: 0.433
NCI-H661; first compound 0.8 µM
  relative viability: 0.432
NCI-H661; first compound 2.53 µM
  relative viability: 0.506
NCI-H1792; first compound 0.08 µM
  relative viability: 0.677
NCI-H1792; first compound 0.253 µM
  relative viability: 0.551
NCI-H1792; first compound 0.8 µM
  relative viability: 0.646
NCI-H1792; first compound 2.53 µM
  relative viability: 0.625
HCC-366; first compound 0.08 µM
  relative viability: 0.404
HCC-366; first compound 0.253 µM
  relative viability: 0.331
HCC-366; first compound 0.8 µM
  relative viability: 0.391
HCC-366; first compound 2.53 µM
  relative viability: 0.312
NCI-H1437; first compound 0.08 µM
  relative viability: 0.355
NCI-H1437; first compound 0.253 µM
  relative viability: 0.303
NCI-H1437; first compound 0.8 µM
  relative viability: 0.281
NCI-H1437; first compound 2.53 µM
  relative viability: 0.285
NCI-H2085; first compound 0.08 µM
  relative viability: 0.469
NCI-H2085; first compound 0.253 µM
  relative viability: 0.509
NCI-H2085; first compound 0.8 µM
  relative viability: 0.504
NCI-H2085; first compound 2.53 µM
  relative viability: 0.561
COR-L 105; first compound 0.08 µM
  relative viability: 0.397
COR-L 105; first compound 0.253 µM
  relative viability: 0.401
COR-L 105; first compound 0.8 µM
  relative viability: 0.382
COR-L 105; first compound 2.53 µM
  relative viability: 0.404
NCI-H1944; first compound 0.08 µM
  relative viability: 0.341
NCI-H1944; first compound 0.8 µM
  relative viability: 0.366
NCI-H1944; first compound 2.53 µM
  relative viability: 0.322
UMC-11; first compound 0.08 µM
  relative viability: 0.354
UMC-11; first compound 0.253 µM
  relative viability: 0.346
UMC-11; first compound 0.8 µM
  relative viability: 0.364
UMC-11; first compound 2.53 µM
  relative viability: 0.401
HCC-827; first compound 0.08 µM
  relative viability: 0.48
HCC-827; first compound 0.253 µM
  relative viability: 0.371
HCC-827; first compound 0.8 µM
  relative viability: 0.484
HCC-827; first compound 2.53 µM
  relative viability: 0.387
HCC-78; first compound 0.08 µM
  relative viability: 0.463
HCC-78; first compound 0.253 µM
  relative viability: 0.441
HCC-78; first compound 0.8 µM
  relative viability: 0.466
HCC-78; first compound 2.53 µM
  relative viability: 0.467
HCC-15; first compound 0.08 µM
  relative viability: 0.689
HCC-15; first compound 0.253 µM
  relative viability: 0.543
HCC-15; first compound 0.8 µM
  relative viability: 0.69
HCC-15; first compound 2.53 µM
  relative viability: 0.724
COR-L23; first compound 0.08 µM
  relative viability: 0.328
COR-L23; first compound 0.253 µM
  relative viability: 0.266
COR-L23; first compound 0.8 µM
  relative viability: 0.272
COR-L23; first compound 2.53 µM
  relative viability: 0.264
NCI-H1395; first compound 0.08 µM
  relative viability: 0.762
NCI-H1395; first compound 0.253 µM
  relative viability: 0.619
NCI-H1395; first compound 0.8 µM
  relative viability: 0.609
NCI-H1395; first compound 2.53 µM
  relative viability: 0.65
EPLC-272H; first compound 0.08 µM
  relative viability: 0.345
EPLC-272H; first compound 0.253 µM
  relative viability: 0.323
EPLC-272H; first compound 0.8 µM
  relative viability: 0.309
EPLC-272H; first compound 2.53 µM
  relative viability: 0.373
LCLC-103H; first compound 0.08 µM
  relative viability: 0.516
LCLC-103H; first compound 0.253 µM
  relative viability: 0.475
LCLC-103H; first compound 0.8 µM
  relative viability: 0.426
LCLC-103H; first compound 2.53 µM
  relative viability: 0.507
